Assay [1] has as its system laser-induced CNV in Cynomolgus monkeys. Put plainly: Laser-induced CNV model in Cynomolgus monkeys (wet AMD model). Type of assay: in vivo, Cynomolgus monkey. The note with it: 2 mg Angio-3, 2 mg and 4 mg PeptideQ, 2 mg Eylea, single IVT. The method, then:
FIGS. 25A, 25B, 25C, 25D, 25E, and 25F show the results of testing in a laser-induced chorodial neovascularization (CNV) model in Cynomolgus moneys developed as an experimental model of wet AMD. FIG. 25A is a schematic of the study design. FIG. 25B are representative fundus fluorescein angiography (FFA) images of all groups. FIG. 25C is a graph showing change in mean lesion grade of the eye in monkeys treated with a single dose 2 mg of Angio-3, dose 2 mg of anti-VEGF (Eylea), 2 mg of peptide (Q2) and 4 mg of peptide (Q4) and control. […] FIG. 25E is a graph of laser area quantified from the FFA images by ImageJ software. FIG. 25F are graphs of laser volume quantified from PS-OCT images by ImageJ software.
A laser-induced choroidal neovascularization (CNV) model was developed and validated in Cynomolgus monkeys as experimental model of wet AMD. […] The development of active CNV was assessed by fluorescein angiography, at Day 14 the baseline degree of neovascularization and leakiness were measured and the final fluorescein angiography assessment was performed on Day 28. Leakage area was quantified by ImageJ software. The laser volume was quantified by Spectralis-Heidelberg software using SD-OCT images.

Assay [2] concerns KIMBA mice (KIMBA-hVEGF Transgenic). As to the kind of experiment: Retinal angiogenesis (FFA leakage) in KIMBA mice. Type of assay: in vivo, mouse. The settings on record: single IVT injection 1 μg in 1 μL. The text has this:
FIGS. 1A, 1B, 1C and 1D show the efficacy of a single IV dose of angio-3 in attenuating the retinal angiogenesis in KIMBA mice, which have over expression of human VEGF (KIMBA-hVEGF Transgenic). FIG. 1A is a schematic of the experimental design. FIG. 1B are images showing Fundus Fluorescein Angiography (FFA) images of baseline and weekly after post treatment. Digital color fundus photographs were taken using a MICRON IV comprehensive system for rodent retinal imaging (Phoenix Research Labs, Pleasanton, Calif.) after pupil dilatation with topical administration of 1% tropicamide (Alcon Laboratories, Inc., Fort Worth, Tex.) and 2.5% phenylephrine (Bausch and Lomb Pharmaceuticals, Inc., Tampa, Fla.) ophthalmic solutions. […] Readout is the leakage of retinal vascularization post-administration of the drug. n=6 eyes per batch; n=3 batches; Values are expressed as means±s.e.m., **P<0.01, *P<0.05, student's t-test. […] All imaging was performed with a laser-scanning confocal fluorescence microscope.
FIGS. 2A, 2B, 2C and 2D show the efficacy of a single IVT dose of angio-3 and Eylea (anti-VEGF), positive control in attenuating the retinal angiogenesis in KIMBA mice. […] Readout is the leakage of retinal vascularization post-administration of the drug. n=10 eyes per batch; n=2 batches; Values are expressed as means±s.e.m., **P<0.01, *P<0.05, student's t-test. […]

We go through 1 substance from patent US11266710B2, “Angio-3 for treatment of retinal angiogenic diseases” (SINGAPORE HEALTH SERVICES PTE LTD, priority 2017, dated 2022).

In the case of “Eylea: Eylea (anti-VEGF), positive control; clinical compound [reference compound]”, in assay [1], the “comparative efficacy between treatment groups” value is recorded as “superior efficacy as compared to test peptides”. Further, the “duration of effect in attenuating retinal angiogenesis post treatment” value in assay [2] is reported as 4 weeks.
